pKi: −log10 of the molar value.
Assays:
[1] = target: T1, Enterobactin synthase component E (Escherichia coli K-12, UniProt P10378); experiment: Binding affinity to EntE; settings: read-out: Ki app
T1 sequence (P10378 whole entry): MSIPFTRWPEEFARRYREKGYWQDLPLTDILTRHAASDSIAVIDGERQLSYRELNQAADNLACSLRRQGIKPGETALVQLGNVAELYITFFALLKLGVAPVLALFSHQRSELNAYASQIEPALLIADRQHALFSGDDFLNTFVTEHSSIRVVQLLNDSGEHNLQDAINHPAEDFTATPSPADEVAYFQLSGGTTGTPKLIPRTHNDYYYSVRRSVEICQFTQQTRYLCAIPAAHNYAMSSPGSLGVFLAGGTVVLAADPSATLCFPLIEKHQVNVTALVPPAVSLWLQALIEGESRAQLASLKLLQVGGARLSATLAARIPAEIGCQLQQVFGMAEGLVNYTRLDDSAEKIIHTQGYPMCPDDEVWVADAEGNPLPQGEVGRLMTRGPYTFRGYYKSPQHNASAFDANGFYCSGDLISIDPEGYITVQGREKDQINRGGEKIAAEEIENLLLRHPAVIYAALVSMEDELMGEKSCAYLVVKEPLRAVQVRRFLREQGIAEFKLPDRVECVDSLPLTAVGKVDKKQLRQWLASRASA

[2] = target: T2, Enterobactin synthase component E (Escherichia coli K-12) (UniProt P10378); experiment: Inhibition of EntE at 0.0006 M
T2 sequence (whole entry): T1 sequence (P10378 whole entry)

[3] = target: T1, Enterobactin synthase component E; experiment: Binding affinity to EntE corrected to substrate competition

Compound	pKi [1]	inhibition [2] [%]	pKi [3]
O=C(NOP(=O)(O)OC[C@H]1O[C@@H](n2cnc3cncnc32)[C@H](O)[C@@H]1O)c1ccccc1	4.89		
O=C(NOP(=O)(O)OC[C@H]1O[C@@H](n2cnc3cncnc32)[C@H](O)[C@@H]1O)c1ccccc1O	7.43		
CC(=O)NOP(=O)(O)OC[C@H]1O[C@@H](n2cnc3cncnc32)[C@H](O)[C@@H]1O	≤ 3.00	< 10	
O=C(NOP(=O)(O)OC[C@H]1O[C@@H](n2cnc3cncnc32)[C@H](O)[C@@H]1O)c1cccc(O)c1O	8.05		8.35

From ChEMBL document CHEMBL1137423, “Nanomolar inhibition of the enterobactin biosynthesis enzyme, EntE: synthesis, substituent effects, and additivity” (Bioorg Med Chem Lett, 2006)
